# Experimental data published in patent US20180344715A1, “WNT/BETA-CATENIN SIGNAL TRANSDUCTION INHIBITORS AND THEIR USE IN TREATMENT OR PREVENTION OF DISEASES AND CONDITIONS LINKED WITH SAID TRANSDUCTION” (BERGEN TEKNOLOGIOVERFORING AS, priority 2015, published 2018).
# Columns and labels:
# HCT116 cells = test: EdU label release assay, HCT116; type: cell-based; conditions: HCT116, 5 μM, 3 days
# Method: Two days later, cells were seeded singly onto 12 mm glass coverslips in 24-well plates. One day after, EdU was detected using the Click-iT® Plus EdU Alexa Fluor 488 Imaging Kit (Life Technologies, C10637) according to the manufacturer's protocol. For double staining of EdU and other proteins, the EdU stained cells were further used for immunofluorescence staining as described above. Intensity of EdU staining in paired cells were quantified by Photoshop CS6 software, unequal EdU distribution was considered when paired cells had intensity ratio higher than 2.
# SW480 cells = test: Soft agar colony-formation assay, SW480; type: cell-based; conditions: 10 days
# Method: The soft agar colony-formation assay was performed using the CellTransformation Assays kit (catalog no. CBA-130; Cell Biolabs, Inc.) according to the recommended protocol. […] Medium containing drugs was replaced every 3 d. For the clonogenic assay, positively transfected cells (wild-type and mutant GFP-SHPRH and control GFP) were enriched by FACS and were seeded in six-well plates at a density of 3,000 cells per well. Medium was changed every 3 d. On the last day colony growth was quantified by crystal violet staining and measurement of OD at 590 nm.
# Apc^min/+ mice = test: Apc min/+ mice study (intestinal adenomas, H&E and IHC); type: in vivo; conditions: 50 mg/kg daily for 5 weeks
# Description: C57BL/6-Apc^min/+ mice were obtained from the Model Animal Research Center of Nanjing University (Nanjing, China). Mice were housed and fed a standard rodent diet at the Animal Facility of the Second Military Medical University (Shanghai, China) in compliance with the institutional guidelines of the Animal Care and Use Committee. […] The mice were weighed weekly and monitored daily for any signs of illness. The mice were sacrificed at the last day of the treatment. The small intestines were dissected, washed in PBS, fixed in 4% PBS-buffered formaldehyde and embedded in paraffin using standard procedures.
# H&E and IHC were performed according to the protocol previously described (Qu, Y. et al, supra). Primary antibodies used for IHC were β-catenin (ab16051, 1:1000, Abcam), Ki67 (ab16667, clone SP6, 1:100, Abcam) and BrdU (ab6326, clone BU1/75, 1:80, Abcam). Investigators were blinded when counting the intestinal adenomas and assessing the homeostasis of mice and fish intestine. Histologic images were captured using the Qcapture Suite software with a Qimaging Exi Blue camera attached to a Leica DMRBE microscope.
# SHPRH = molecular target: T1, SHPRH (Homo sapiens, UniProt Q149N8); test: Cellular thermal shift assay (CETSA), SHPRH; type: binding; conditions: SW480, 10 μM
# T1 construct: endogenous in cells; host or cells: SW480
# Method: CETSA in intact cells was performed according to the protocol previously described (Martinez Molina, D. et al., 2013, Science 341, 84-87). Briefly, SW480 cells were seeded equally in 2 T75 flasks and allowed to reach 80% confluence one day after. […] After trypsinization and PBS wash, cells were resuspended in 450 μl PBS containing freshly added protease inhibitors and equally divided between 7 tubes. Cells in each tube were heated at indicated temperatures for 3 minutes and kept at room temperature for 3 minutes. Heated cells were lysed by 3 cycles of freezing in liquid nitrogen (1 minute) and thawing in room temperature water (1 minute). The cell lysates were centrifuged at 20,000 g for 20 minutes at 4° C. The soluble fractions were isolated for Western blotting analysis.
# [1] = system: Wnt signals (TCF-GFP reporter); test: TCF-GFP expression assay in transgenic zebrafish embryos; type: in vivo; conditions: embryos treated for 2 days
# Method: Transgenic zebrafish harboring Tcf/Lef-miniP:dGFP reporter (line isi04) was obtained from National BioResource Project Zebrafish, Japan. Fish were kept under standard conditions and treated humanely in accordance with approved Institutional Animal Care and Use Committee of University of Bergen. For embryo experiments, embryos at 6 hpf (hours post fertilization) were cultured in 6-well plates (20 embryos per well) at 28° C. Embryos were treated with indicated chemicals and water was replenished daily. […] For TCF-GFP expression assay, embryos at 3 dpf were examined under fluorescence microscope. In both assays embryos that died during treatment were excluded from assessment.
# β-catenin = test: Western blotting of β-catenin in SW480 cells; type: cell-based
# Method: Culture cells were lysed in RIPA buffer (50 mM Tris-HCl, pH 7.4, 150 mM NaCl, 1% NP-40, 0.5% sodium deoxycholate, 0.1% SDS, 1 mM EDTA) containing freshly added protease inhibitors (Roche, 11836153001). Protein lysates were resolved in Novex 10% BisTris MiniGels (Life technologies, NP0303BOX) and transferred onto PVDF membranes with Pierce 1-Step Transfer Buffer (Thermo Fisher Scientific, 84731). Membranes were developed by using Pierce Fast Western Blot Kit with ECL Substrate (Thermo Fisher Scientific, 35050) and primary antibodies (β-catenin, ab16051, 1:2000 Abcam; GAPDH, ab181602, clone EPR16891, 1:20000, Abcam; hemagglutinin, ab9134, 1:2000, Abcam; FLAG, ab1162, 1:1000, Abcam; ubiquitin, ab7254, clone Ubi-1, 1:5000, Abcam; SHPRH, ab80129, 1:1000, Abcam; non-phospho-(active) β-catenin (Ser33/37/Thr41), 4270, 1:1000, Cell Signaling Technology; phospho-3-catenin (Ser33/37/Thr41), 9561, 1:1000, Cell Signaling Technology; β-catenin-Thr41/Ser45, 9565, 1:1000, Cell Signaling Technology; MED23, BD550429, clone D27-1805, 1:500, BD Biosciences). Proteins were visualized and captured by a ChemiDOC XRS system and Quantity One software (Bio-Rad Laboratories).
# T1 sequence (Q149N8 whole entry): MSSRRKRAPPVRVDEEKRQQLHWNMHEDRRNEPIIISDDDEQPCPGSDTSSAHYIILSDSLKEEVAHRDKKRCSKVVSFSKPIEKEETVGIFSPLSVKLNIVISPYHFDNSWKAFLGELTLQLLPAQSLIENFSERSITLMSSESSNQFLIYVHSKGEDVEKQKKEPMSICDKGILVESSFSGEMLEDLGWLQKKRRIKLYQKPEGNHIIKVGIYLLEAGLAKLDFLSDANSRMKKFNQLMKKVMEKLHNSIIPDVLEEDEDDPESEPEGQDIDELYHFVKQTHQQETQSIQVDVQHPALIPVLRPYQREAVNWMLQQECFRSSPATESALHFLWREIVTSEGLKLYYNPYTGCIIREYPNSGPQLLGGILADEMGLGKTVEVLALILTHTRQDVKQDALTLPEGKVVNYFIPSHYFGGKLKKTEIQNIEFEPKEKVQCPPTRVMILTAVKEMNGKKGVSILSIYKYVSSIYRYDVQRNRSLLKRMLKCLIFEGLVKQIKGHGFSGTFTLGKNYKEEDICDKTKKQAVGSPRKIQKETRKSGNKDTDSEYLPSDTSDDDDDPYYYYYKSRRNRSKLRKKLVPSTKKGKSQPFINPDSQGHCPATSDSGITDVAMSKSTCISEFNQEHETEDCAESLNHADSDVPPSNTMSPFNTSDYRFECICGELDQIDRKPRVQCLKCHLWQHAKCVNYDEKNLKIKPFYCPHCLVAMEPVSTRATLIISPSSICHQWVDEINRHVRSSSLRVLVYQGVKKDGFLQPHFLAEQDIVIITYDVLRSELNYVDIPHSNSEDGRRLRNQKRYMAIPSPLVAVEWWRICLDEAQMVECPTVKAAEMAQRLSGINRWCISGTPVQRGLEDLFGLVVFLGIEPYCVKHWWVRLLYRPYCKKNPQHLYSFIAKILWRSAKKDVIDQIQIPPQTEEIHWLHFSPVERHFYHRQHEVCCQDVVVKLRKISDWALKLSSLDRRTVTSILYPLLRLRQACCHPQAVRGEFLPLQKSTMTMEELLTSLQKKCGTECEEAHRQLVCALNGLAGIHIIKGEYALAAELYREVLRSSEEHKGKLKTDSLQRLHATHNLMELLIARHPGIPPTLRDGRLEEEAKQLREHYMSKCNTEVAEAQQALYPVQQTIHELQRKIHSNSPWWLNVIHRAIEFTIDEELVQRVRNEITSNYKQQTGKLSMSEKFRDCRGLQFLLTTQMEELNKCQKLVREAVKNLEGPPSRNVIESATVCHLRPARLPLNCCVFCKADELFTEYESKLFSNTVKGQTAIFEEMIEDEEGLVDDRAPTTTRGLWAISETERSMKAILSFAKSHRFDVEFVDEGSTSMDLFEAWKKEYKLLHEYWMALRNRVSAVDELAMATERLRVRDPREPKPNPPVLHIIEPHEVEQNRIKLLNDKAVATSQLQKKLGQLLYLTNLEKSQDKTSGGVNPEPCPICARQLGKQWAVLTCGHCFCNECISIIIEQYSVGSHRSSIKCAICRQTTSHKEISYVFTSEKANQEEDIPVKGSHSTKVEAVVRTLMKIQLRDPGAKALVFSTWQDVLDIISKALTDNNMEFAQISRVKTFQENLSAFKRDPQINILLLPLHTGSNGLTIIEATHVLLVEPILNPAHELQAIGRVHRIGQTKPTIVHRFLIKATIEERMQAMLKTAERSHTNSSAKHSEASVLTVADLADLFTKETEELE
structure (smiles),measurement,setting,value
"CNC(=O)c1ccccc1Sc1ccc2c(/C=C/c3ccccn3)n[nH]c2c1 [axitinib, N-Methyl-2-[[3-[(E)-2-pyridin-2-ylethenyl]-1H-indazol-6-yl]sulfanyl]benzamide]",EdU ACD,HCT116 cells,increased significantly
same,colony growth,SW480 cells,strongly and dose-dependently inhibited
same,"normal-looking small intestine: mucosa organization, crypt density, distribution of Ki67 positive cells",Apc^min/+ mice,no obvious change
same,nuclear β-catenin in adenomas (IHC),Apc^min/+ mice,reduced nuclear β-catenin
same,staining of the proliferation marker Ki67 in adenomas,Apc^min/+ mice,Obviously weaker staining
same,numbers of multi-villus adenomas and microadenomas,Apc^min/+ mice; oral gavage,significantly decreased
same,direct binding in intact living cells,SHPRH,confirmed
same,TCF-GFP expression in the midbrain/hindbrain boundary and fin mesenchyme,[1],decreased
same,phosphorylated and non-phospho (active) β-catenin (ABC),"β-catenin; APC mutant SW480 cells, 24 hours",reduced
same,β-catenin level (Western blots),"β-catenin; SW480, dose course 24 hours, time course at 5 μM",dose and time dependent decrease
